# Tested on: L. major lysate proteins
# Test: Multitargeted bead mixture chemoproteomics, single concentration competition, proteome-wide
# Format: binding
smiles,measurement,setting,value
NCCCNc1ccc(C(=O)NC(CCC(=O)O)C(=O)O)cc1 (stereo not drawn) [compound 7],fold change,"protein LMJF.35.0420 40S RIBOSOMAL PROTEIN S3A, PUTATIVE, vehicle control = 1",1.04
same,fold change relative to vehicle control,"protein LMJF.35.1220, SHORT CHAIN DEHYDROGENASE, PUTATIVE",1.22
same,fold change relative to vehicle control,"protein LMJF.35.1380, MIT[…], BETA SUBUNIT, PUTATIVE",1.09
same,fold change vs vehicle control,"protein LMJF.35.1830 HYPOTHETICAL PROTEIN, CONSERVED",0.96
same,fold change vs vehicle control,protein LMJF.35.3340 6-phosphogluconate dehydrogenase,1.02
same,fold change,"protein LMJF.35.3700 GIM5A PROTEIN, PUTATIVE,GLYCOSOMAL MEMBRANE PROTEIN, vehicle control = 1",0.89
same,fold change vs vehicle control,"protein LMJF.35.3760 60S RIBOSOMAL PROTEIN L27A/L29, PUTATIVE",0.84
same,fold change relative to vehicle control,"protein LMJF.35.3840, […] 2 SUBUNIT, PUTATIVE",1.34
same,fold change vs vehicle control,"protein LMJF.35.3860 T-COMPLEX PROTEIN 1, ETA SUBUNIT, PUTATIVE",0.92
same,fold change,"protein LMJF.35.4420 MIT[…] TRANSPORTER, PUTATIVE, vehicle control = 1",1.06
same,fold change relative to vehicle control,"protein LMJF.35.4880, HYPOTHETICAL PROTEIN, CONSERVED (TPR repeat, putative)",0.98
same,fold change relative to vehicle control,"protein LMJF.35.5330, ISOPENTENYL-D[…]-ISOMERASE, PUTATIVE",1.02
same,fold change relative to vehicle control,"protein LMJF.36.0070, STRESS-INDUCIBLE PROTEIN STI1 HOMOLOG",1.21
same,fold change,"protein LMJF.36.0480 HY[…], CONSERVED, vehicle control = 1",1.01
same,fold change vs vehicle control,"protein LMJF.36.0620 HY[…], CONSERVED",1.07
same,fold change vs vehicle control,"protein LMJF.36.0930 40S RIBOSOMAL PROTEIN S18, PUTATIVE",1.09
same,fold change vs vehicle control,"protein LMJF.36.0990 40S RIBOSOMAL PROTEIN S10, PUTATIVE",1.03
same,fold change,"protein LMJF.36.1140 SHORT CHAIN 3-HYDROXYACYL-COA DEHYDROGENASE, PUTATIVE, vehicle control = 1",0.85
same,fold change relative to vehicle control,"protein LMJF.36.1260, FRUCTOSE-1,6-BI[…]",1.01
same,fold change,"protein LMJF.36.1340 N-ACETYLTRANSFERASE SUBUNIT NAT1, PUTATIVE, vehicle control = 1",0.79
same,fold change vs vehicle control,"protein LMJF.36.1650 PROTEASOME BETA 5 SUBUNIT, PUTATIVE",0.99
same,fold change relative to vehicle control,"protein LMJF.36.2380, STEROL 24-C-METHYLTRANSFERASE, PUTATIVE",0.97
same,fold change vs vehicle control,"protein LMJF.36.2950 SUCCINYL-COA LIGASE GDP-FORMING] BETA-CHAIN, PUTATIVE",1
same,fold change vs vehicle control,protein LMJF.36.3210 14-3-3 PROTEIN-LIKE PROTEIN,0.87
same,fold change vs vehicle control,protein LMJF.36.3410 SHORT CHAIN DEHYDROGENASE-LIKE PROTEIN,1.26
same,fold change,"protein LMJF.36.3460 HYPOTHETICAL PROTEIN, CONSERVED (NIPSNAP, putative), vehicle control = 1",0.88
same,fold change,"protein LMJF.36.3580 HY[…], CONSERVED (Protein of unknown function (DUF2009), putative), vehicle control = 1",1.12
same,fold change,"protein LMJF.36.3750 40S RIBOSOMAL PROTEIN S27-1, PUTATIVE, vehicle control = 1",1.02
same,fold change vs vehicle control,"protein LMJF.36.5010 40S RIBOSOMAL PROTEIN SA, PUTATIVE",1.12
same,fold change vs vehicle control,"protein LMJF.36.5130 HY[…], CONSERVED",1.42
same,fold change vs vehicle control,"protein LMJF.36.5150 HYPOTHETICAL PROTEIN, CONSERVED",0.97
same,fold change relative to vehicle control,"protein LMJF.36.5380, NADH DEHYDROGENASE, PUTATIVE",1.14
same,fold change vs vehicle control,"protein LMJF.36.5390 PHOSPHORIBOSYLPYROPHOSPHATE SYNTHETASE, PUTATIVE",0.89
same,fold change vs vehicle control,"protein LMJF.36.5620 ISOLEUCYL-TRNA SYNTHETASE, PUTATIVE",1
same,fold change,"protein LMJF.36.6430 PROTEIN TRANSPORT PROTEIN SEC23-LIKE PROTEIN, vehicle control = 1",0.89
same,fold change vs vehicle control,"protein LMJF.36.6760 HY[…], CONSERVED",1.01
same,fold change relative to vehicle control,"protein LMJF.[…], MIT[…] BETA SUBUNIT, PUTATIVE",0.91
same,fold change relative to vehicle control,"protein LMJF.[…], POLY(A) EXPORT PROTEIN, PUTATIVE",1.14
same,fold change,"vs vehicle control, protein LINJ.20.0630 CYTIDINE TR[…], PUTATIVE,CTP SYNTHASE, PUTATIVE",1.04
same,fold change,"vs vehicle control, protein LINJ.20.1390 COATOMER BETA SUBUNIT, PUTATIVE",0.87
same,fold change,"vs vehicle control, protein LMJF.05.1140 VACUOLAR ATPASE SUBUNIT-LIKE PROTEIN",0.93
same,fold change,"vs vehicle control, protein LMJF.07.1090 DELTA-5 FATTY ACID DESATURASE",0.92
same,fold change,"vs vehicle control, protein LMJF.09.0220 HYPOTHETICAL PROTEIN, CONSERVED",0.78
same,fold change,"vs vehicle control, protein LMJF.11.1030 HYPOTHETICAL PROTEIN, CONSERVED",0.93
same,fold change,"vs vehicle control, protein LMJF.14.0640 FATTY ACID ELONGASE, PUTATIVE",0.8
same,fold change,"vs vehicle control, protein LMJF.14.0705 FATTY ACID ELONGASE, PUTATIVE",1.17
same,fold change,"vs vehicle control, protein LMJF.14.1120 KINESIN K39, PUTATIVE",0.6
same,fold change,"vs vehicle control, protein LMJF.16.1610 PROHIBITIN",1.07
same,fold change,"vs vehicle control, protein LMJF.17.0010 HYPOTHETICAL PROTEIN, CONSERVED",0.87
same,fold change,"vs vehicle control, protein LMJF.18.1130 RAS-RELATED PROTEIN RAB-5, PUTATIVE",0.68
same,fold change,"vs vehicle control, protein LMJF.19.1420 CYSTEINE PEPTIDASE A (CPA)",0.9
same,fold change,"vs vehicle control, protein LMJF.21.0280 HY[…], CONSERVED",0.94
same,fold change,"vs vehicle control, protein LMJF.22.1560 40S RIBOSOMAL PROTEIN L14, PUTATIVE",0.7
same,fold change,"vs vehicle control, protein LMJF.23.1220 T-COMPLEX PROTEIN 1, GAMMA SUBUNIT, PUTATIVE",1.02
same,fold change,"vs vehicle control, protein LMJF.24.0370 ASPARTATE AMINOTRANSFERASE, PUTATIVE",1.01
same,fold change,"vs vehicle control, protein LMJF.25.1770 ENOYL-COA REDUCTASE, PUTATIVE",1.02
same,fold change,"vs vehicle control, protein LMJF.26.0170 60S RIBOSOMAL PROTEIN L7, PUTATIVE",0.9
same,fold change,"vs vehicle control, protein LMJF.26.1550 TRI[…] ALPHA SUBUNIT, MIT[…]-LIKE PROTEIN",1.06
same,fold change,"vs vehicle control, protein LMJF.26.1610 PROLINE OXIDASE, MITOCHONDRIAL PRECURSOR-LIKE PROTEIN",0.83
same,fold change,"vs vehicle control, protein LMJF.28.1950 X-PRO, DIPEPTIDYL-PEPTIDASE,SERINE PEPTIDASE, CLAN SC, FAMILY S15, PUTATIVE",1.14
same,fold change,"vs vehicle control, protein LMJF.31.1070 BIOTIN/LIPOATE PROTEIN LIGASE-LIKE PROTEIN",0.87
same,fold change,"vs vehicle control, protein LMJF.32.1370 HYPOTHETICAL PROTEIN, CONSERVED",0.91
same,fold change,"vs vehicle control, protein LMJF.34.0490 IMPORTIN BETA-1 SUBUNIT, PUTATIVE",0.78
same,fold change,"vs vehicle control, protein LMJF.34.4060 UBIQUITIN HYDROLASE, PUTATIVE,CYSTEINE PEPTIDASE, CLAN CA, FAMILY C19, PUTATIVE",0.91
same,fold change,"vs vehicle control, protein LMJF.36.1600 PROTEASOME ALPHA 1 SUBUNIT, PUTATIVE",0.95
same,fold change,"vs vehicle control, protein LMJF.[…] RIBOSOMAL PROTEIN S7, PUTATIVE",1
